Data set [1] has as its system men demonstrating positive symptoms of diabetic neuropathy. Nature of the data set: Clinical trial of sildenafil versus placebo (crossover) with pain assessments (PDI, VAS Pain Score, Verbal Evaluation of Pain Relief). The format is in vivo, human. Particulars: 50 mg every night for 10 days, pain assessed by PDI, VAS Pain Score and Verbal Evaluation of Pain Relief. The procedure:
The study was conducted using sidenafil, however it will be appreciated that the study may be conducted with other cGMP PDE5 inhibitors, for example one or more of the preferred cGMP PDE5 inhibitors listed hereinabove.
The patients then underwent a 7-day treatment-free phase in order to establish baseline data, including a series of pain assessments comprising determining the Pain Disability Index (PDI) (adapted from Tait et al 1990), the Visual Analogue Scale (VAS) Pain Score, and the Verbal Evaluation of Pain Relief. They were then treated with either sildenafil (50 mg) or placebo every night for 10 days and immediately after this period the patient's degree of pain was reassessed. A washout period of 10 days followed where the patients received no treatment. […] Immediately after this period the patient's degree of pain was assessed.
Pain Disability Index (PDI) is determined by patient questionnaire, and measures the overall impact of pain (on a scale of 0 to 10) associated with normal daily activities, (i.e. family/home responsibilities, recreation, social activity, occupation, self-care, sleeping). […]
Visual Analogue Scale (VAS) Pain Score is determined by the patient indicating on a continuous line from 0 (=no pain) to 100 (=pain as bad as it could be) the average level of a pain experienced during the assessment period. […]

For data set [2], the system named is patients with diabetic polyneuropathy. Nature of the data set: Anecdotal reports in patients with diabetic polyneuropathy after single doses of sildenafil. The format is in vivo, human. The conditions noted are these: single doses of 50 mg.

Compound `CCCOc1ncc(C(C)=O)cc1-c1nc2c(CC)n(C3CN(C(C)C)C3)nc2c(=O)[nH]1` [Example 4, 5-(5-Acetyl-2-propoxy-3-pyridinyl)-3-ethyl-2-(1-isopropyl-3-azetidinyl)-2,6-dihydro-7H-pyrazolo[4,3-d]pyrimidin-7-one] registered a melting point of 162.8 to 163.6 °C.

For `CCCc1nn(C)c2c(=O)[nH]c(-c3cc(S(=O)(=O)N4CCN(C)CC4)ccc3OCC)nc12` [sildenafil, 5-[2-ethoxy-5-(4-methyl-1-piperazinylsulphonyl)phenyl]-1-methyl-3-n-propyl-1,6-dihydro-7H-pyrazolo[4,3-d]pyrimidin-7-one], the “degree of pain experienced” value in data set [1] was “reduction in the degree of pain experienced in a number of patients”. For the same compound, in data set [2], the painful symptoms entry is given as “improvement in painful symptoms”.

For orientation: melting point means the temperature of the solid-liquid transition.
